Assay results as given in publication PMC10762035, “Molecular basis of human trace amine-associated receptor 1 activation” (Nature Communications, 2024).
Numbering of substitutions follows the chain as printed. Where “and” joins values, the source holds several entries; their conditions need not be identical. Equal values may be shown once. Read-outs that look alike come from different tables or passages of the source.

What was measured:
Type in all cases: cell-based
hTA1 C178S = target: T1, hTA1 C178S (Homo sapiens, UniProt Q96RJ0, C178S); test: GloSensor cAMP accumulation assay, C178S mutant; conditions: for C178S - Normalized Luminescence Counts (N=2): log[Compound], single replicates
T1 construct: expressed in transfected cells; host or cells: HEK293T
T1 sequence (Q96RJ0 1-339 C178S): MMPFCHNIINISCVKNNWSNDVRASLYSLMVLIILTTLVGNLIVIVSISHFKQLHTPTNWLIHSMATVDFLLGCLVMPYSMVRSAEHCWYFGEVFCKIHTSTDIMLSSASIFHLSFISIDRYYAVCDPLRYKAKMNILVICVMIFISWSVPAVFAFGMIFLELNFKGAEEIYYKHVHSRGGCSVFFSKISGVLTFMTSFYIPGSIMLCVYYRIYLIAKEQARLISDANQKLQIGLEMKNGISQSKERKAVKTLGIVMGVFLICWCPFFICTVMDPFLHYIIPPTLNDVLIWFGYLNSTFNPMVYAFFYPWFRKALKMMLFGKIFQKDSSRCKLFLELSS

hTA1 I290N = target: T2, hTA1 I290N (Homo sapiens, UniProt Q96RJ0, I290N); test: GloSensor cAMP accumulation assay, I290N mutant;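 note: cells transiently co-expressing hTA1 and the GloSensor cAMP biosensor, luminescence read 30 min after compound addition at room temperature, efficacy scaled to the maximal β-PEA response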
T2 construct: expressed in transfected cells; host or cells: HEK293T
T2 sequence (Q96RJ0 1-339 I290N): T1 sequence (Q96RJ0 1-339 C178S) with S178C, I290N

hTA1 W264F = target: T3, hTA1 W264F (Homo sapiens, UniProt Q96RJ0, W264F); test: GloSensor cAMP accumulation assay, W264F mutant;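 note: cells transiently transfected with receptor plus GloSensor, luminescence read 30 min after agonist addition at room temperature, concentration-response curves fitted by log(agonist) vs response regression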
T3 construct: expressed in transfected cells; host or cells: HEK293T
T3 sequence (Q96RJ0 1-339 W264F): T1 sequence (Q96RJ0 1-339 C178S) with S178C, W264F

hTA1 C96S = target: T4, hTA1 C96S (Homo sapiens, UniProt Q96RJ0, C96S); test: GloSensor cAMP accumulation assay, C96S mutant; conditions: log[Compound]
T4 construct: expressed in transfected cells; host or cells: HEK293T
T4 sequence (Q96RJ0 1-339 C96S): T1 sequence (Q96RJ0 1-339 C178S) with C96S, S178C

hTA1 S107C = target: T5, hTA1 S107C (Homo sapiens, UniProt Q96RJ0, S107C); test: GloSensor cAMP accumulation assay, S107C mutant;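 note: cells transiently co-expressing receptor and GloSensor biosensor, luminescence read after 30 min agonist exposure at room temperature, concentration-response fitted by nonlinear regression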
T5 construct: expressed in transfected cells; host or cells: HEK293T
T5 sequence (Q96RJ0 1-339 S107C): T1 sequence (Q96RJ0 1-339 C178S) with S107C, S178C

[1] = W246F mutant (so in the source) minus WT average

NCCc1ccc(O)cc1 [TYR, tyramine]
ΔpEC50 values (each mutant value - WT average), Mean (hTA1 C178S; C178S, each row one experiment (N=2), 3 replicates): 0.02169 and 0.1822 | EC50 (hTA1 C178S; C178S, each row one experiment (N=2), 3 replicates, read-out: pEC50 values, Mean (converted)): 0.395 µM and 0.273 µM | EC50 (hTA1 C178S; C178S, n=2, read-out: EC50): 0.328 µM | Emax (hTA1 C178S; C178S, n=2, read-out: Span ± SEM (Emax normalized to β-PEA)): 98.4 ± 1.77% | Emax values, Mean (hTA1 C178S; C178S, β-PEA = 100, each row one experiment (N=2), 3 replicates): 100.127 | Emax (hTA1 C178S; C178S, β-PEA = 100, each row one experiment (N=2), 3 replicates, read-out: Emax values, Mean): 96.6% | C178S - Normalized Luminescence Counts (N=2) (hTA1 C178S; M = -5): 91.979 and 95.8576 and 102.026 and 75.3904 and 102.974 and 107.581 | C178S - Normalized Luminescence Counts (N=2) (hTA1 C178S; M = -5.522): 87.8668 and 77.3994 and 76.8387 and 82.4508 and 101.179 and 88.1949 | C178S - Normalized Luminescence Counts (N=2) (hTA1 C178S; M = -6): 67.8199 and 64.4086 and 66.1843 and 84.2459 and 87.7162 and 94.2082 | C178S - Normalized Luminescence Counts (N=2) (hTA1 C178S; M = -6.522): 42.5859 and 50.2963 and 40.4364 and 48.0464 and 47.119 and 50.6791 | C178S - Normalized Luminescence Counts (N=2) (hTA1 C178S; M = -7): 17.0716 and 19.2212 and 22.0717 and 25.7583 and 28.0918 and 27.3439 | C178S - Normalized Luminescence Counts (N=2) (hTA1 C178S; M = -7.522): 4.922 and 5.576 and 4.735 and 10.3511 and 8.496 and 10.8597 | C178S - Normalized Luminescence Counts (N=2) (hTA1 C178S; M = -8): 0.8565 and 3.099 and 2.0247 and 3.141 and 5.295 and 4.428 | C178S - Normalized Luminescence Counts (N=2) (hTA1 C178S; M = -8.522): -0.4052 and -0.03139 and 0.3892 and 0.9572 and 2.034 and 4.517 | C178S - Normalized Luminescence Counts (N=2) (hTA1 C178S; M = -9): -1.013 and -1.2 and 0.1555 and -0.5985 and 0.02978 and 0.3589 | C178S - Normalized Luminescence Counts (N=2) (hTA1 C178S; M = -9.522): -0.5454 and -1.1529 and -1.2 and -0.9575 and 1.615 and 1.376 | C178S - Normalized Luminescence Counts (N=2) (hTA1 C178S; M = -10): -0.4052 and -0.07812 and -0.966 and 0.5982 and 1.645 and 1.346 | C178S - Normalized Luminescence Counts (N=2) (hTA1 C178S; M = -10.522): -0.7791 and -0.3118 and -0.5921 and -2.214 and -0.2395 and -1.047 | C178S - Normalized Luminescence Counts (N=2) (hTA1 C178S; M = -11): -0.8258 and -0.3585 and -1.106 and 0.08961 and 2.782 and 2.932 | C178S - Normalized Luminescence Counts (N=2) (hTA1 C178S; M = -11.522): -0.1716 and 0.1555 and 0.1088 and 1.047 and 3.051 and 2.303 | C178S - Normalized Luminescence Counts (N=2) (hTA1 C178S; M = -12): -0.9193 and -0.3118 and -0.6389 and 0.6281 and 2.423 and 2.214 | C178S - Normalized Luminescence Counts (N=2) (hTA1 C178S; M = -12.522): 0.2023 and -0.07812 and -0.03139 and -1.077 and 1.944 and 2.603 | EC50 (hTA1 I290N; I290N, n=2, read-out: EC50): 0.492 µM | Emax (hTA1 I290N; I290N, n=2, read-out: Span ± SEM (Emax normalized to β-PEA)): 99.42 ± 0.19% | cAMP accumulation response, single replicate values (source data, Supplementary Figure 5) (hTA1 I290N; hTA1 I290N (N=2), log[Compound], M = -5): 84.4195 and 103.709 and 90.7072 and 91.6949 | ΔpEC50 values (each mutant value - WT average), Mean (hTA1 I290N; hTA1 I290N mutant minus WT average): -0.07565 and -0.07195 | EC50 (hTA1 I290N; hTA1 I290N mutant, Figure 3B source data, each grid row a separate experiment, 3 replicates, read-out: pEC50 values (Mean) (converted)): 0.494 µM and 0.49 µM | Emax values, Mean (hTA1 I290N; hTA1 I290N mutant, β-PEA set to 100, each grid row a separate experiment, 3 replicates): 99.2249 | Emax (hTA1 I290N; hTA1 I290N mutant, β-PEA set to 100, each grid row a separate experiment, 3 replicates, read-out: Emax values (Mean)): 99.6% | ΔEmax values (each mutant value - WT average) (hTA1 W264F; [1]): 2.816 | ΔpEC50 values (each mutant value - WT average) (hTA1 W264F; [1]): -1.54 and -1.2519 | EC50 (hTA1 W264F; W246F mutant (so in the source), each line an independent experiment, 3 replicates, read-out: pEC50 values (Mean) (converted)): 14.4 µM and 7.41 µM | Emax values, Mean (hTA1 W264F; W246F mutant (so in the source), β-PEA = 100, each line an independent experiment, 3 replicates): 99.2183 | Emax (hTA1 W264F; W246F mutant (so in the source), β-PEA = 100, each line an independent experiment, 3 replicates, read-out: Emax values (Mean)): 102% | EC50 (hTA1 W264F; W264F, n=2, read-out: EC50): 10.3 µM | Emax (hTA1 W264F; W264F, n=2, read-out: Span ± SEM (Emax normalized to β-PEA)): 101 ± 1.29% | Normalized Luminescence Counts (hTA1 C96S; C96S, M = -5, single replicates (N=2)): 1.4045 and 3.382 and -0.5726 and -0.7614 and 6.985 and 24.4145 | Normalized Luminescence Counts (hTA1 C96S; C96S, M = -5.522, single replicates (N=2)): 0.08646 and 2.064 and -0.5726 and 5.048 (2×) and 10.8582 | Normalized Luminescence Counts (hTA1 C96S; C96S, M = -6, single replicates (N=2)): -1.891 and 1.4045 and -2.55 and -0.7614 and 5.048 and -8.508 | Normalized Luminescence Counts (hTA1 C96S; C96S, M = -6.522, single replicates (N=2)): -0.5726 and -3.209 and -2.55 and -6.571 (2×) and -2.698 | Normalized Luminescence Counts (hTA1 C96S; C96S, M = -7, single replicates (N=2)): 0.08646 and 0.7455 and -2.55 and -0.7614 and -4.6346 and -2.698 | Normalized Luminescence Counts (hTA1 C96S; C96S, M = -7.522, single replicates (N=2)): -1.232 and -0.5726 and 0.7455 and 1.175 and -2.698 and 3.112 | Normalized Luminescence Counts (hTA1 C96S; C96S, M = -8, single replicates (N=2)): 2.064 and 0.7455 and -0.5726 and 3.112 and 24.4145 and -12.381 | Normalized Luminescence Counts (hTA1 C96S; C96S, M = -8.522, single replicates (N=2)): -1.891 and 0.08646 and -1.232 and 6.985 and 10.8582 and 12.7948 | Normalized Luminescence Counts (hTA1 C96S; C96S, M = -9, single replicates (N=2)): -1.232 and -0.5726 and -1.891 and 1.175 and -4.6346 and 6.985 | Normalized Luminescence Counts (hTA1 C96S; C96S, M = -9.522, single replicates (N=2)): -3.209 and -0.5726 and -3.868 and 8.922 and 55.4002 and 6.985 | Normalized Luminescence Counts (hTA1 C96S; C96S, M = -10, single replicates (N=2)): -1.232 and 0.08646 (2×) and 5.048 and 3.112 and 12.7948 | Normalized Luminescence Counts (hTA1 C96S; C96S, M = -10.522, single replicates (N=2)): -0.5726 and 2.064 and 0.08646 and 6.985 and -4.6346 and -0.7614 | Normalized Luminescence Counts (hTA1 C96S; C96S, M = -11, single replicates (N=2)): 0.7455 and 2.723 and -1.232 and 3.112 (2×) and 10.8582 | Normalized Luminescence Counts (hTA1 C96S; C96S, M = -11.522, single replicates (N=2)): -0.5726 and 3.382 and -2.55 and -8.508 | Normalized Luminescence Counts (hTA1 C96S; M = -11.522, single replicates, mutant block above C178S): -0.1784 and -0.1556 and -0.3377 and 0.3752 and 3.634 and 2.245 | Normalized Luminescence Counts (hTA1 C96S; M = -12, single replicates, mutant block above C178S): 0.04925 and -0.1556 and -0.3149 and 0.2684 and 2.352 and 1.711 | Normalized Luminescence Counts (hTA1 C96S; M = -12.522, single replicates, mutant block above C178S): -0.4515 and -0.588 and -0.5653 and 1.283 and 1.3903 and 1.07 | ΔEmax values (each mutant value - WT average) (hTA1 S107C; S107C mutant minus WT average): 8.654 | Emax values, Mean (hTA1 S107C; S107C mutant, β-PEA = 100, each line an independent experiment, 3 replicates): 107.638 and 133.074 | EC50 (hTA1 S107C; S107C, n=2, read-out: EC50): 0.186 µM | Emax (hTA1 S107C; S107C, n=2, read-out: Span ± SEM (Emax normalized to β-PEA)): 120%
